Earlier results on three compounds are cited in patent US7838081B2, “Liquor that avoids the apparition of stains produced by fungi in lignocellulosic materials such as wood” (priority 2005, dated 2010).

With `Oc1c(Br)cc(Br)cc1Br` [2,4,6 Tribromophenol], the “Results against stains of the wood (in words)” value in the data set with stains of the wood is “good results”. For the same compound, the “LD50 acute oral rat” value in the data set with rat is over 5.000 mg/kg. In the data set with rabbit, the “LD50 acute termal rabbit” value was over 8.000 mg/kg.
In the case of `[Cu+2].[O-]c1cccc2cccnc12.[O-]c1cccc2cccnc12` [Copper 8 oxiquinolinate (PQ-8), Copper 8 oxiquinolinate], the “LD50 acute oral rat” value in the data set with rat is 3.900 to 4.700 mg/kg. In the data set on rabbit, the “LD50 acute termal rabbit” value is over 2.000 mg/kg.
Consider `Oc1c(Cl)c(Cl)c(Cl)c(Cl)c1Cl` [Pentachlorophenol], for which the “Results against stains of the wood (in words)” value in the data set on stains of the wood is on record as “good results”.
